Cc1ccc(N)cc1N
Settings	solubility (mole fraction)
in di(2-ethylhexyl) phthalate, 312.45 K	0.061
in di(2-ethylhexyl) phthalate, 324.25 K	0.075
in di(2-ethylhexyl) phthalate, 332.52 K	0.0871
in di(2-ethylhexyl) phthalate, 340.05 K	0.0972
in di(2-ethylhexyl) phthalate, 349.75 K	0.108
in di(2-ethylhexyl) phthalate, 361.55 K	0.127
in dimethyl carbonate, 305.75 K	0.107
in dimethyl carbonate, 310.05 K	0.113
in dimethyl carbonate, 312.85 K	0.116
in dimethyl carbonate, 316.55 K	0.118
in dimethyl carbonate, 317.45 K	0.121
in dimethyl carbonate, 321.35 K	0.124
in dimethyl carbonate, 327.35 K	0.126
in dimethyl carbonate, 333.45 K	0.129

COC(=O)Nc1ccc(C)c(NC(=O)OC)c1
Settings	solubility (mole fraction)
in di(2-ethylhexyl) phthalate, 334.25 K	0.167
in di(2-ethylhexyl) phthalate, 346.95 K	0.172
in di(2-ethylhexyl) phthalate, 363.65 K	0.178
in di(2-ethylhexyl) phthalate, 378.65 K	0.186
in di(2-ethylhexyl) phthalate, 389.55 K	0.195
in di(2-ethylhexyl) phthalate, 398.15 K	0.2
in dimethyl carbonate, 307.75 K	0.0087
in dimethyl carbonate, 316.15 K	0.013
in dimethyl carbonate, 324.35 K	0.0173
in dimethyl carbonate, 330.65 K	0.0216
in dimethyl carbonate, 335.85 K	0.0258
in dimethyl carbonate, 339.35 K	0.0299
in dimethyl carbonate, 343.65 K	0.0341
in dimethyl carbonate, 353.15 K	0.0423
in dimethyl carbonate, 360.75 K	0.0503
in dimethyl carbonate, 365.15 K	0.0535

COC(=O)Nc1ccc(C)c(N)c1
Settings	solubility (mole fraction)
in di(2-ethylhexyl) phthalate, 326.55 K	0.032
in di(2-ethylhexyl) phthalate, 333.75 K	0.0422
in di(2-ethylhexyl) phthalate, 341.65 K	0.0522
in di(2-ethylhexyl) phthalate, 349.95 K	0.062
in di(2-ethylhexyl) phthalate, 363.55 K	0.081
in di(2-ethylhexyl) phthalate, 391.85 K	0.0992
in dimethyl carbonate, 306.35 K	0.0339
in dimethyl carbonate, 314.25 K	0.0446
in dimethyl carbonate, 316.75 K	0.0499
in dimethyl carbonate, 320.65 K	0.0552
in dimethyl carbonate, 323.45 K	0.0604
in dimethyl carbonate, 328.25 K	0.0655
in dimethyl carbonate, 334.45 K	0.0706
in dimethyl carbonate, 341.85 K	0.0756

From BigSolDB 2.1
